Results on 1 molecule are retold here after patent US20240239806A1, “COMPOUNDS, COMPOSITIONS AND METHODS OF TREATING DISORDERS” (Chengdu Anticancer Bioscience, Ltd., priority 2021, published 2024).

In one experiment the test system is SW480. The experiment in a line: MECP in cancer cell line. It counts as cell-based. The settings on record: Homo sapiens. How it is done: (§1) Six lung cancer cell lines (NCI-H23, NCI-H460, NCI-H596, NCI-H2170, Calu-6 and A549), two colon cancer cell lines (HCT116 and SW460), one breast cancer cell line MDA-MB-231, one gastric cancer cell line NCI-N87, one prostate cancer cell line DU145, one cervical cancer cell line Hela, and one glioblastoma cell line T98G were obtained from ATCC. The T2 HCC cell line was derived from a mouse liver cancer model initiated by a transgene of MYC. All cell lines were cultured in DMEM (Gibco, Cleveland, TN, USA) supplemented with 5% fetal bovine serum (Gibco), penicillin (100 U/mL)—streptomycin (100 μg/mL) (Gibco, Cat. No. 15140-122), 2 mM L-glutamine (Gibco, 200 mM solution, Cat. No. 25030081), and 1 mM sodium pyruvate (Gibco, 100 mM solution, Cat. No. 11360070) at 37° C. in a humidified incubator that was maintained at 5% CO2.
(§2) We have previously developed a mechanism-informed phenotypic screening assay to identify novel antimitotic agents. Equipped with a prior understanding of the versatile functions of the chromosomal passenger protein (CPP) complex in orchestrating karyokinesis and cytokinesis, the screening assay is to score for phenotypes typically seen when the CPP complex is disabled. Specifically, the parameters for a positive hit are a temporary elevation of mitotic index (MI) at 24 hours of drug treatment and an accumulation of polyploid cells at 48 hours of drug treatment, indicative of mitotic arrest and cytokinetic failure respectively. These parameters exclude compounds that elicit only a prolonged arrest of cells in mitosis, a phenotype typically provoked by spindle toxins. The screening procedure is briefly summarized here. RPEMYC^H2B-GFP cells engineered to express a Histone 2B-EGFP fusion protein were passaged as batches of 96-well plates, 18-24 hours before exposure to the chemical compounds of the present disclosure at concentrations from 1 nM to 30 μM. At 24, 48 or 72 hours after initiation of treatment, cells were analyzed for either an arrest in mitosis or a change in DNA content by GE IN-Cell Analyzer 2000. As set forth in Table 2 below, a value of greater than or equal to 1 nM and less than or equal to 1.0 μM is marked “A”; a value greater than 1.00 μM and less than or equal to 10.0 μM is marked “B”; a value greater than 10.0 μM and less than or equal to 30.0 μM is marked “C”; and a value greater than 30.0 μM is marked “D.”
On to `COC(=O)c1cc2c(Oc3cc(OC)cc(-n4cccn4)c3)ccnc2cc1OC` [Compound 32, methyl 7-methoxy-4-(3-methoxy-5-(1H-pyrazol-1-yl)phenoxy)quinoline-6-carboxylate], for which the minimal effective concentration fell in the range of 0.001 to 1 µM.

The next experiment deals with T2 HCC. In words: MECP in cancer cell line. The settings on record: Mus musculus. It counts as cell-based. How it is done: as §1, §2
Regarding `COC(=O)c1cc2c(Oc3cc(OC)cc(-n4cccn4)c3)ccnc2cc1OC` [Compound 32, methyl 7-methoxy-4-(3-methoxy-5-(1H-pyrazol-1-yl)phenoxy)quinoline-6-carboxylate], the minimal effective concentration is 0.001 to 1 µM.

Another experiment deals with Hela. In words: MECP in cancer cell line. The settings on record: Homo sapiens. It counts as cell-based. How it is done: as §1, §2
In turn, `COC(=O)c1cc2c(Oc3cc(OC)cc(-n4cccn4)c3)ccnc2cc1OC` [Compound 32, methyl 7-methoxy-4-(3-methoxy-5-(1H-pyrazol-1-yl)phenoxy)quinoline-6-carboxylate] registered a minimal effective concentration of 0.001 to 1 µM.

Another experiment concerns MDA-MB-231. In words: MECP in cancer cell line. The class given is cell-based. The settings on record: Homo sapiens. How it is done:
as §1, §2
Regarding `COC(=O)c1cc2c(Oc3cc(OC)cc(-n4cccn4)c3)ccnc2cc1OC` [Compound 32, methyl 7-methoxy-4-(3-methoxy-5-(1H-pyrazol-1-yl)phenoxy)quinoline-6-carboxylate], the minimal effective concentration lay within 1 to 10 µM.

For another experiment, the system named is HCT116. The experiment in a line: MECP in cancer cell line. The settings on record: Homo sapiens, HCT-116. It counts as cell-based. How it is done: as §1, §2
For the molecule `COC(=O)c1cc2c(Oc3cc(OC)cc(-n4cccn4)c3)ccnc2cc1OC` [Compound 32, methyl 7-methoxy-4-(3-methoxy-5-(1H-pyrazol-1-yl)phenoxy)quinoline-6-carboxylate], the minimal effective concentration was in the range of 0.001 to 1 µM.

For a further experiment, the system named is A549. The experiment in a line: MECP in cancer cell line. The class given is cell-based. The settings on record: Homo sapiens. The protocol: as §1, §2
`COC(=O)c1cc2c(Oc3cc(OC)cc(-n4cccn4)c3)ccnc2cc1OC` [Compound 32, methyl 7-methoxy-4-(3-methoxy-5-(1H-pyrazol-1-yl)phenoxy)quinoline-6-carboxylate]: the minimal effective concentration lay in the range of 0.001 to 1 µM.

In another experiment the test system is SW480. The experiment in a line: MTT assay of cellular proliferation. The class given is cell-based. The following applies: Homo sapiens, 50% inhibition of cellular proliferation. How it is done: as §1
(§3) The MTT assay measures cellular metabolic activity as a proxy for cell viability and involves the conversion of the water-soluble yellow dye MTT [3-(4,5-dimethylthiazol-2-yl)-2,5-diphenyltetrazolium bromide] into an insoluble purple formazan by the action of mitochondrial reductase. Formazan is then solubilized and its concentration is determined by measuring the optical density (OD) value at a wavelength of 570 nm. The value is in proportional to the number of live cells with excellent linearity up to ˜10^6 cells per well. The MTT assay was used to determine the EC50 value, the concentration of a compound that leads to 50% inhibition of cellular proliferation. Briefly, cells were split when growing to the mid-Log phase. Cells in 100 μL of culture medium were seeded into each well of 96-well microplates and cultivated for 15-24 hours to reach a confluence of 20-30% and were then exposed to drugs at concentrations ranging from 1 nM to 30 μM. At the endpoint, 20 μL of a MTT stock solution in DMSO (5 mg/mL) was added to each well that contains 100 μL of DMEM. The microplates were left in the cell culture incubator for 3-4 h before subjected to solubilization and determination of formazan at A570 in a microplate reader (BioTek ELX808iu). […] Therefore, these compounds might hold a broad utility in the treatment of a large variety of human malignancies.
In general terms: Tetrazolium assays rely on reduction of a dye to a coloured formazan, in cell work by metabolically active cells.
The EC50 is the concentration needed to bring the measured effect to its halfway point. Lower therefore signals an effect from little substance. Take `COC(=O)c1cc2c(Oc3cc(OC)cc(-n4cccn4)c3)ccnc2cc1OC` [Compound 32, methyl 7-methoxy-4-(3-methoxy-5-(1H-pyrazol-1-yl)phenoxy)quinoline-6-carboxylate]: the EC50 fell in the range of 1000 to 10000 nM.

The test system of another experiment is T2 HCC. In words: MTT assay of cellular proliferation. The class given is cell-based. The following applies: Mus musculus, 50% inhibition of cellular proliferation. How it is done:
as §1, §3
In the case of `COC(=O)c1cc2c(Oc3cc(OC)cc(-n4cccn4)c3)ccnc2cc1OC` [Compound 32, methyl 7-methoxy-4-(3-methoxy-5-(1H-pyrazol-1-yl)phenoxy)quinoline-6-carboxylate], the EC50 fell in the range of 1000 to 10000 nM.

A further experiment has as its system Hela. The experiment in a line: MTT assay of cellular proliferation. It counts as cell-based. The following applies: Homo sapiens, 50% inhibition of cellular proliferation. How it is done:
as §1, §3
As for `COC(=O)c1cc2c(Oc3cc(OC)cc(-n4cccn4)c3)ccnc2cc1OC` [Compound 32, methyl 7-methoxy-4-(3-methoxy-5-(1H-pyrazol-1-yl)phenoxy)quinoline-6-carboxylate], the EC50 lay in the range of 1 to 1000 nM.

In a further experiment the test system is MDA-MB-231. In words: MTT assay of cellular proliferation. The class given is cell-based. The settings on record: Homo sapiens; MDA-MB-231, MTT, 50% inhibition of cellular proliferation. The protocol: as §1, §3
Molecule `COC(=O)c1cc2c(Oc3cc(OC)cc(-n4cccn4)c3)ccnc2cc1OC` [Compound 32, methyl 7-methoxy-4-(3-methoxy-5-(1H-pyrazol-1-yl)phenoxy)quinoline-6-carboxylate] showed an EC50 of 1 to 1000 nM.

The test system of the next experiment is HCT116. The experiment in a line: MTT assay of cellular proliferation. It counts as cell-based. The following applies: Homo sapiens, HCT-116, 50% inhibition of cellular proliferation. The protocol: as §1, §3
In the case of `COC(=O)c1cc2c(Oc3cc(OC)cc(-n4cccn4)c3)ccnc2cc1OC` [Compound 32, methyl 7-methoxy-4-(3-methoxy-5-(1H-pyrazol-1-yl)phenoxy)quinoline-6-carboxylate], the EC50 was in the range of 1000 to 10000 nM.

The test system of a further experiment is NCI-N87. In words: MTT assay of cellular proliferation. It counts as cell-based. The settings on record: Homo sapiens, 50% inhibition of cellular proliferation. The protocol: as §1, §3
`COC(=O)c1cc2c(Oc3cc(OC)cc(-n4cccn4)c3)ccnc2cc1OC` [Compound 32, methyl 7-methoxy-4-(3-methoxy-5-(1H-pyrazol-1-yl)phenoxy)quinoline-6-carboxylate] returned an EC50 of 1000 to 10000 nM.

The test system of the next experiment is NCI-H23. In words: MTT assay of cellular proliferation. It counts as cell-based. The settings on record: Homo sapiens, 50% inhibition of cellular proliferation. The protocol:
as §1, §3
In turn, `COC(=O)c1cc2c(Oc3cc(OC)cc(-n4cccn4)c3)ccnc2cc1OC` [Compound 32, methyl 7-methoxy-4-(3-methoxy-5-(1H-pyrazol-1-yl)phenoxy)quinoline-6-carboxylate] registered an EC50 of 1 to 1000 nM.

The subject of a further experiment is A549. The experiment in a line: MTT assay of cellular proliferation. It counts as cell-based. The settings on record: Homo sapiens, 50% inhibition of cellular proliferation. The protocol: as §1, §3
Regarding `COC(=O)c1cc2c(Oc3cc(OC)cc(-n4cccn4)c3)ccnc2cc1OC` [Compound 32, methyl 7-methoxy-4-(3-methoxy-5-(1H-pyrazol-1-yl)phenoxy)quinoline-6-carboxylate], the EC50 lay within 1000 to 10000 nM.

Another experiment deals with RPEMYC^H2B-GFP cells. The experiment in a line: Phenotypic screening assay (mitotic arrest, polyploidy). The class given is cell-based. The following applies: 1 nM to 30 μM, read-out: Min. Effective conc. for Polyploidy (≥5%). Summed up:
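RPE cells expressing MYC and H2B-EGFP treated with compound at 1 nM–30 μM; mitotic index scored at 24 h and polyploidy (DNA content) at 48 h by automated imaging, with reads at 24, 48 or 72 h. Hits show transient mitotic arrest followed by polyploid accumulation.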
Consider `COC(=O)c1cc2c(Oc3cc(OC)cc(-n4cccn4)c3)ccnc2cc1OC` [Compound 32, methyl 7-methoxy-4-(3-methoxy-5-(1H-pyrazol-1-yl)phenoxy)quinoline-6-carboxylate], for which the minimal effective concentration is 0.001 to 1 µM.

Staying with this experiment, now noted: 1 nM to 30 μM, read-out: Mitotic Arrest (≥5%).
For `COC(=O)c1cc2c(Oc3cc(OC)cc(-n4cccn4)c3)ccnc2cc1OC` [Compound 32, methyl 7-methoxy-4-(3-methoxy-5-(1H-pyrazol-1-yl)phenoxy)quinoline-6-carboxylate], the minimal effective concentration is 0.001 to 1 µM.

The same experiment, now with this note: 1 nM to 30 μM, read-out: Proliferative arrest (>50%).
In the case of `COC(=O)c1cc2c(Oc3cc(OC)cc(-n4cccn4)c3)ccnc2cc1OC` [Compound 32, methyl 7-methoxy-4-(3-methoxy-5-(1H-pyrazol-1-yl)phenoxy)quinoline-6-carboxylate], the IC50 was in the range of 1 to 1000 nM.

The next experiment concerns NCI-N87. The experiment in a line: MECP in cancer cell line. It counts as cell-based. The following applies: Homo sapiens. How it is done: as §1, with “CO2. […]” for “CO2.”
The molecule `COC(=O)c1cc2c(Oc3cc(OC)cc(-n4cccn4)c3)ccnc2cc1OC` [Compound 32, methyl 7-methoxy-4-(3-methoxy-5-(1H-pyrazol-1-yl)phenoxy)quinoline-6-carboxylate] displayed a minimal effective concentration of 1 to 10 µM.

For the next experiment, the system named is NCI-H23. The experiment in a line: MECP in cancer cell line. The class given is cell-based. The following applies: Homo sapiens. How it is done: as §1, with “CO2. […]” for “CO2.”
`COC(=O)c1cc2c(Oc3cc(OC)cc(-n4cccn4)c3)ccnc2cc1OC` [Compound 32, methyl 7-methoxy-4-(3-methoxy-5-(1H-pyrazol-1-yl)phenoxy)quinoline-6-carboxylate]: the minimal effective concentration is 0.001 to 1 µM.
